Experimental data as given in patent US20230085307A1, “PYRIDAZINONE COMPOUND AND HERBICIDE” (NISSAN CHEMICAL CORPORATION, priority 2019, published 2023).

How the values were obtained:
Japanese bulrush = assay: Test Example 1: herbicidal activity, application before weed generation under submerged conditions (Table 16, symbol B); assay type: in vivo, Japanese bulrush (Schoenoplectus juncoides); conditions: amount of applied herbicide 320 g/ha
Method in brief: (§1)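 Alluvial soil was flooded to 4 cm depth, weed seeds were sown mixed and 2.5-leaf rice seedlings were transplanted. On sowing day, the compound's emulsion, diluted in water to a set dose, was applied to the water surface. Plants grew at 25–30 °C and were scored 0–5 after three weeks.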

green foxtail [1] = assay: Test Example 4: herbicidal effect by soil treatment (Table 19, symbol G); assay type: in vivo, green foxtail (Setaria viridis); conditions: amount of applied herbicide 320 g/ha
Method in brief: (§2)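 Seeds were sown in sterilized diluvial soil and covered with about 1.5 cm of soil. An emulsion formulation diluted with water to a predetermined herbicide amount was sprayed evenly onto the soil surface. Plants grew in a greenhouse at 25° C. to 30° C., and the effect was scored three weeks after application using criteria from an earlier test.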

persian speedwell [2] = assay: Test Example 4: herbicidal effect by soil treatment (Table 19, symbol R); assay type: in vivo, Persian speedwell (Veronica persica); conditions: amount of applied herbicide 320 g/ha
Method in brief: as §2

redroot pigweed [3] = assay: Test Example 5: herbicidal effect by foliage application, plastic box (Table 20, symbol N); assay type: in vivo, redroot pigweed (Amaranthus retroflexus)
Method in brief: (§3)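 Plants sown in sterilized diluvial soil and grown 14 days in a greenhouse at 25° C to 30° C, then sprayed on the foliage with the compound's emulsion diluted in water to a predetermined herbicide amount. Injury to weeds and crops scored three weeks after application on a visual rating scale.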

Chinese sprangletop = assay: Test Example 3: herbicidal effect by foliage application, Wagner pot (Table 18, symbol D); assay type: in vivo, chinese sprangletop (Leptochloa chinensis); conditions: 320 g/ha
Method in brief: (§4)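 Plants were sown in alluvial soil held under 0.1–0.5 cm standing water and grown 14 days in a greenhouse at 25–30 °C. An emulsifiable formulation, water-diluted to the set dose, was then sprayed onto the foliage, and effects were scored three weeks later using previously defined criteria.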

wild oat [4] = assay: Test Example 4: herbicidal effect by soil treatment (Table 19, symbol I); assay type: in vivo, wild oat (Avena fatua); conditions: amount of applied herbicide 320 g/ha
Method in brief: as §2

southern crabgrass [5] = assay: Test Example 5: herbicidal effect by foliage application, plastic box (Table 20, symbol F); assay type: in vivo, southern crabgrass (Digitaria ciliaris)
Method in brief: as §3

chickweed [6] = assay: Test Example 4: herbicidal effect by soil treatment (Table 19, symbol P); assay type: in vivo, common chickweed (Stellaria media); conditions: amount of applied herbicide 320 g/ha
Method in brief: as §2

Italian ryegrass [7] = assay: Test Example 5: herbicidal effect by foliage application, plastic box (Table 20, symbol K); assay type: in vivo, Italian ryegrass (Lolium multiflorum)
Method in brief: as §3

lambsquarters [8] = assay: Test Example 4: herbicidal effect by soil treatment (Table 19, symbol O); assay type: in vivo, lambsquarters (Chenopodium album); conditions: amount of applied herbicide 320 g/ha
Method in brief: as §2

blackgrass [9] = assay: Test Example 4: herbicidal effect by soil treatment (Table 19, symbol J); assay type: in vivo, blackgrass (Alopecurus myosuroides); conditions: amount of applied herbicide 320 g/ha
Method in brief: as §2

chickweed [10] = assay: Test Example 5: herbicidal effect by foliage application, plastic box (Table 20, symbol P); assay type: in vivo, common chickweed (Stellaria media)
Method in brief: as §3

blackgrass [11] = assay: Test Example 5: herbicidal effect by foliage application, plastic box (Table 20, symbol J); assay type: in vivo, blackgrass (Alopecurus myosuroides)
Method in brief: as §3

velvetleaf [12] = assay: Test Example 5: herbicidal effect by foliage application, plastic box (Table 20, symbol M); assay type: in vivo, velvetleaf (Abutilon theophrasti)
Method in brief: as §3

wild oat [13] = assay: Test Example 5: herbicidal effect by foliage application, plastic box (Table 20, symbol I); assay type: in vivo, wild oat (Avena fatua)
Method in brief: as §3

late watergrass = assay: Test Example 1: herbicidal activity, application before weed generation under submerged conditions (Table 16, symbol A); assay type: in vivo, late watergrass (Echinochloa oryzicola); conditions: amount of applied herbicide 320 g/ha
Method in brief: as §1

barnyard grass [14] = assay: Test Example 5: herbicidal effect by foliage application, plastic box (Table 20, symbol H); assay type: in vivo, barnyard grass (Echinochloa crus-galli)
Method in brief: as §3

redroot pigweed [15] = assay: Test Example 4: herbicidal effect by soil treatment (Table 19, symbol N); assay type: in vivo, redroot pigweed (Amaranthus retroflexus); conditions: amount of applied herbicide 320 g/ha
Method in brief: as §2

lambsquarters [16] = assay: Test Example 5: herbicidal effect by foliage application, plastic box (Table 20, symbol O); assay type: in vivo, lambsquarters (Chenopodium album)
Method in brief: as §3

barnyard grass [17] = assay: Test Example 4: herbicidal effect by soil treatment (Table 19, symbol H); assay type: in vivo, barnyard grass (Echinochloa crus-galli); conditions: amount of applied herbicide 320 g/ha
Method in brief: as §2

false cleavers = assay: Test Example 5: herbicidal effect by foliage application, plastic box (Table 20, symbol Q); assay type: in vivo, false cleavers (Galium spurium)
Method in brief: as §3

barnyard grass [18] = assay: Test Example 3: herbicidal effect by foliage application, Wagner pot (Table 18, symbol H); assay type: in vivo, barnyard grass (Echinochloa crus-galli); conditions: 320 g/ha
Method in brief: as §4

velvetleaf [19] = assay: Test Example 4: herbicidal effect by soil treatment (Table 19, symbol M); assay type: in vivo, velvetleaf (Abutilon theophrasti); conditions: amount of applied herbicide 320 g/ha
Method in brief: as §2

rice flat sedge = assay: Test Example 3: herbicidal effect by foliage application, Wagner pot (Table 18, symbol E); assay type: in vivo, rice flat sedge (Cyperus iria); conditions: 320 g/ha
Method in brief: as §4

windgrass [20] = assay: Test Example 4: herbicidal effect by soil treatment (Table 19, symbol L); assay type: in vivo, windgrass (Apera spica-venti); conditions: amount of applied herbicide 320 g/ha
Method in brief: as §2

windgrass [21] = assay: Test Example 5: herbicidal effect by foliage application, plastic box (Table 20, symbol L); assay type: in vivo, windgrass (Apera spica-venti)
Method in brief: as §3

green foxtail [22] = assay: Test Example 5: herbicidal effect by foliage application, plastic box (Table 20, symbol G); assay type: in vivo, green foxtail (Setaria viridis)
Method in brief: as §3

southern crabgrass [23] = assay: Test Example 4: herbicidal effect by soil treatment (Table 19, symbol F); assay type: in vivo, southern crabgrass (Digitaria ciliaris); conditions: amount of applied herbicide 320 g/ha
Method in brief: as §2

persian speedwell [24] = assay: Test Example 5: herbicidal effect by foliage application, plastic box (Table 20, symbol R); assay type: in vivo, Persian speedwell (Veronica persica)
Method in brief: as §3

Italian ryegrass [25] = assay: Test Example 4: herbicidal effect by soil treatment (Table 19, symbol K); assay type: in vivo, Italian ryegrass (Lolium multiflorum); conditions: amount of applied herbicide 320 g/ha
Method in brief: as §2

oval-leafed pondweed = assay: Test Example 1: herbicidal activity, application before weed generation under submerged conditions (Table 16, symbol C); assay type: in vivo, oval-leafed pondweed (Monochoria vaginalis); conditions: amount of applied herbicide 320 g/ha
Method in brief: as §1

[26] = foliage application, 320 g/ha, three weeks after application
[27] = amount of applied herbicide 320 g/ha, foliage application after 14-day growth, evaluated three weeks after application

SMILES	Herbicidal effect, B: Japanese bulrush (Japanese bulrush)	G: green foxtail, herbicidal effect grade (green foxtail [1])	R: persian speedwell, herbicidal effect grade (persian speedwell [2])	herbicidal effect on Chinese sprangletop (D) (Chinese sprangletop)	I: wild oat, herbicidal effect grade (wild oat [4])	P: chickweed, herbicidal effect grade (chickweed [6])	O: lambsquarters, herbicidal effect grade (lambsquarters [8])	J: blackgrass, herbicidal effect grade (blackgrass [9])	Herbicidal effect, A: late watergrass (late watergrass)	N: redroot pigweed, herbicidal effect grade (redroot pigweed [15])	H: barnyard grass, herbicidal effect grade (barnyard grass [17])	herbicidal effect on barnyard grass (H) (barnyard grass [18])	M: velvetleaf, herbicidal effect grade (velvetleaf [19])	herbicidal effect on rice flat sedge (E) (rice flat sedge)	L: windgrass, herbicidal effect grade (windgrass [20])	F: southern crabgrass, herbicidal effect grade (southern crabgrass [23])	K: Italian ryegrass, herbicidal effect grade (Italian ryegrass [25])	Herbicidal effect, C: oval-leafed pondweed (oval-leafed pondweed)	also measured
CCOc1ccccc1-c1sc2cc(OCc3ccccc3)ccc2c1-c1c(O)c(C)nn(C)c1=O [3-119]	3 (Herbicidal rate of 40% or more and less than 70%)	3 (Herbicidal rate of 40% or more and less than 70%)	5 (Herbicidal rate of 90% or more (almost completely withered))	4 (Herbicidal rate of 70% or more and less than 90%)	0 (Herbicidal rate of 5% or less (almost no effect))	0 (Herbicidal rate of 5% or less (almost no effect))	3 (Herbicidal rate of 40% or more and less than 70%)	0 (Herbicidal rate of 5% or less (almost no effect))	3 (Herbicidal rate of 40% or more and less than 70%)	3 (Herbicidal rate of 40% or more and less than 70%)	0 (Herbicidal rate of 5% or less (almost no effect))	4 (Herbicidal rate of 70% or more and less than 90%)	0 (Herbicidal rate of 5% or less (almost no effect))	5 (Herbicidal rate of 90% or more (almost completely withered))	0 (Herbicidal rate of 5% or less (almost no effect))	4 (Herbicidal rate of 70% or more and less than 90%)	0 (Herbicidal rate of 5% or less (almost no effect))	3 (Herbicidal rate of 40% or more and less than 70%)	N: redroot pigweed, herbicidal effect grade (redroot pigweed [3]; [26]): 5 (Herbicidal rate of 90% or more (almost completely withered)); F: southern crabgrass, herbicidal effect grade (southern crabgrass [5]; [26]): 5 (Herbicidal rate of 90% or more (almost completely withered)); K: Italian ryegrass, herbicidal effect grade (Italian ryegrass [7]; [26]): 1 (Herbicidal rate of 5% or more and less than 20%); P: chickweed, herbicidal effect grade (chickweed [10]; [26]): 5 (Herbicidal rate of 90% or more (almost completely withered)); J: blackgrass, herbicidal effect grade (blackgrass [11]; [26]): 0 (Herbicidal rate of 5% or less (almost no effect)); M: velvetleaf, herbicidal effect grade (velvetleaf [12]; [26]): 4 (Herbicidal rate of 70% or more and less than 90%); I: wild oat, herbicidal effect grade (wild oat [13]; [26]): 1 (Herbicidal rate of 5% or more and less than 20%); H: barnyard grass, herbicidal effect grade (barnyard grass [14]; [26]): 3 (Herbicidal rate of 40% or more and less than 70%); O: lambsquarters, herbicidal effect grade (lambsquarters [16]; [26]): 5 (Herbicidal rate of 90% or more (almost completely withered)); Q: false cleavers, herbicidal effect grade (false cleavers; [26]): 5 (Herbicidal rate of 90% or more (almost completely withered)); L: windgrass, herbicidal effect grade (windgrass [21]; [26]): 4 (Herbicidal rate of 70% or more and less than 90%); G: green foxtail, herbicidal effect grade (green foxtail [22]; [26]): 5 (Herbicidal rate of 90% or more (almost completely withered)); R: persian speedwell, herbicidal effect grade (persian speedwell [24]; [26]): 5 (Herbicidal rate of 90% or more (almost completely withered))
CCCC(=O)Oc1c(C)nn(C)c(=O)c1-c1c(-c2ccc(C)cc2)sc2cc(F)c(F)cc12 [5-004]	3 (Herbicidal rate of 40% or more and less than 70%)	0 (Herbicidal rate of 5% or less (almost no effect))	0 (Herbicidal rate of 5% or less (almost no effect))	0 (Herbicidal rate of 5% or less (almost no effect))	0 (Herbicidal rate of 5% or less (almost no effect))	0 (Herbicidal rate of 5% or less (almost no effect))	4 (Herbicidal rate of 70% or more and less than 90%)	0 (Herbicidal rate of 5% or less (almost no effect))	2 (Herbicidal rate of 20% or more and less than 40%)	3 (Herbicidal rate of 40% or more and less than 70%)	0 (Herbicidal rate of 5% or less (almost no effect))	3 (Herbicidal rate of 40% or more and less than 70%)	0 (Herbicidal rate of 5% or less (almost no effect))	0 (Herbicidal rate of 5% or less (almost no effect))	0 (Herbicidal rate of 5% or less (almost no effect))	0 (Herbicidal rate of 5% or less (almost no effect))	0 (Herbicidal rate of 5% or less (almost no effect))	0 (Herbicidal rate of 5% or less (almost no effect))	Herbicidal effect by foliage application, N: redroot pigweed (redroot pigweed [3]; [27]): 2 (Herbicidal rate of 20% or more and less than 40%); Herbicidal effect by foliage application, F: southern crabgrass (southern crabgrass [5]; [27]): 0 (Herbicidal rate of 5% or less (almost no effect)); Herbicidal effect by foliage application, K: Italian ryegrass (Italian ryegrass [7]; [27]): 1 (Herbicidal rate of 5% or more and less than 20%); Herbicidal effect by foliage application, P: chickweed (chickweed [10]; [27]): 3 (Herbicidal rate of 40% or more and less than 70%); Herbicidal effect by foliage application, J: blackgrass (blackgrass [11]; [27]): 0 (Herbicidal rate of 5% or less (almost no effect)); Herbicidal effect by foliage application, M: velvetleaf (velvetleaf [12]; [27]): 3 (Herbicidal rate of 40% or more and less than 70%); Herbicidal effect by foliage application, I: wild oat (wild oat [13]; [27]): 0 (Herbicidal rate of 5% or less (almost no effect)); Herbicidal effect by foliage application, H: barnyard grass (barnyard grass [14]; [27]): 0 (Herbicidal rate of 5% or less (almost no effect)); Herbicidal effect by foliage application, O: lambsquarters (lambsquarters [16]; [27]): 4 (Herbicidal rate of 70% or more and less than 90%); Herbicidal effect by foliage application, Q: false cleavers (false cleavers; [27]): 0 (Herbicidal rate of 5% or less (almost no effect)); Herbicidal effect by foliage application, L: windgrass (windgrass [21]; [27]): 1 (Herbicidal rate of 5% or more and less than 20%); Herbicidal effect by foliage application, G: green foxtail (green foxtail [22]; [27]): 3 (Herbicidal rate of 40% or more and less than 70%); Herbicidal effect by foliage application, R: persian speedwell (persian speedwell [24]; [27]): 3 (Herbicidal rate of 40% or more and less than 70%)
